# “And” between values parts separate entries of the source, which are not always exact repeats. Equal values may be shown once.
# Test system: 565726-208-R1-J5-PDC complex spheroids, growth inhibition
# Experiment: Anticancer human tumor 565726-208-R1-J5-PDC patient-derived pancreatic adenocarcinoma cell line growth inhibition [RAS]
# Conditions: for viability, T/C: stronger effect = lower value
# Description: RAS pathway inhibitors in Combinations in Complex Spheroids
# A high-throughput screen of multi-cell type tumor spheroids was designed to identify active combinations of RAS pathway inhibitors and targeted small molecules. Complex spheroids include a stromal component modeled by human endothelial cells (HUVEC) and fibroblasts modeled by human mesenchymal stem cells (MSCs). The concentration ranges selected for each drug and investigational agent were based upon clinically achievable concentrations if the clinical Cmax of the agent was known.
# Compounds. The drugs and investigational agents: abemaciclib (NSC768073), cobimetinib (NSC768068), divarasib (GDC6063, NSC841802), docetaxel (NSC628503), GDC-1971 (RLY-1971, NSC841576), gemcitabine (NSC613327), inavolisib (NSC800729), ipatasertib (NSC767898), KB-0742 (NSC834161), MRTX-1133 (NSC836407), osimertinib (NSC779217), RMC-4630 (NSC839698), RMC-6236 (NSC851965), RMC-6291 (NSC852671), Ro-3306 (NSC812927), sapanisertib (NSC764658), SN-38 (NSC673596), staurosporine (NSC755774), SY5609 (NSC837396), and tovorafenib (DAY101, NSC766906), were obtained from the National Cancer Institute (NCI) Developmental Therapeutics Program Chemical Repository. The FDA-approved anticancer drug set is available from the NCI Developmental Therapeutics Program. […] The stock solutions were prepared in dimethyl sulfoxide (DMSO, Sigma-Aldrich, St. Louis, MO, cat. D2650) at 800-fold the tested concentration and stored at -70 degrees C prior to their use. All drugs and investigational agents were tested over a range starting from a high concentration at or near the clinical Cmax and decreasing in half-log increments. If the clinical Cmax for an agent had not been determined, the highest concentration tested was 10 microM.
# Cell Culture. All cells were maintained in an incubator at 37 degrees C and 5% CO2 with 95% humidity. The PDC lines were cultured according to standard operating procedures established by the NCI PDMR. All PDCs were thawed and cultured in Matrigel-coated flasks prepared with a working solution of 1X Ham's F-12 nutrient mix, without supplementation (Invitrogen, Waltham, MA, cat. 11765054), 100 U/mL penicillin-streptomycin (Invitrogen, cat. 15140122), and 2.5% Matrigel (Corning Inc., Corning, NY, cat. 354248) for the first three passages. The 362531-283-R-J2-PDC and 782815-120-R-J1-PDC lines were cultured in 6C/Colon 1B media, which includes advanced DMEM/F-12 (Thermo Fisher Scientific, cat. 12634028), 10 mM HEPES (Thermo Fisher Scientific, cat. 15630080), 1X GlutaMAX supplement (Thermo Fisher Scientific, cat. 35050061), 0.1 mg/mL primocin (InvivoGen, San Diego, CA, cat. ant-pm-2), 10% defined fetal bovine serum, heat inactivated (HyClone Laboratories Inc., Logan, UT, cat. SH30070.03HI), 50% L-WRN conditioned media (ATCC, cat. CRL-3276), 1.25 mM N-Acetyl-L-cysteine (Sigma-Aldrich, cat. A9165), 10 mM nicotinamide (Sigma-Aldrich, cat. N0636), 1X B-27 supplement (Thermo Fisher Scientific, cat. 17504044), 1X N-2 supplement (Thermo Fisher Scientific, cat. 17502048), 50 ng/mL human EGF (Thermo Fisher Scientific, cat. PHG0311), and 10 microM Y-27632 dihydrochloride (Tocris Bioscience, cat. 1254). The K12877-001-R-J1-PDC line was cultured in 6I media, which includes all 6C/Colon 1B media plus 10 ng/mL human FGF-10 (PeproTech, cat. 100-26), 1 ng/mL human FGF-2 (PeproTech, cat. 100-18B), 1 µM prostaglandin E2 (Tocris Bioscience, cat. 2296), […] hydrocortisone (Sigma-Aldrich, cat. H4001), and […] bovine insulin (Sigma-Aldrich, cat. I6634). The K86415-001-R-J1-PDC line was cultured in 6D media, which includes all 6C/Colon 1B media components minus the L-WRN conditioned media. The 485176-168-R4-J1-PDC was cultured in PANC media, which includes all 6C/Colon 1B media plus 100 ng/mL human FGF-10 (PeproTech, cat. 100-26), 500 nM SB-431542 (Selleckchem, cat. S1067), and 10 nM gastrin (Tocris Bioscience, cat. 3006). […]
# [1] = compound alone, run of 07/15/2024
# [2] = compound alone, run of 07/09/2024
# 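Note: spheroids exposed to compounds for seven days before readout.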
# 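Throughout, for viability, T/C: 100% = DMSO vehicle control viability.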
SMILES,IC50 (curve of compound),"viability, T/C (compound 0.0316 µM)","viability, T/C (compound 0.1 µM)","viability, T/C (compound 0.316 µM)","viability, T/C (compound 1 µM)",also measured
C#Cc1c(F)ccc2cc(O)cc(-c3ncc4c(N5CC6CCC(C5)N6)nc(OCC56CCCN5CC(F)C6)nc4c3F)c12 (stereo not given),,104% [middle of 8 runs],101% [middle of 8 runs],94.6% [middle of 8 runs],84.3% [middle of 8 runs],"viability, T/C (compound 3.16 µM): 78.7% [middle of 8 runs]; IC50 [1]: > 10 µM"
C=CC(=O)Nc1cc(Nc2nccc(-c3cn(C)c4ccccc34)n2)c(OC)cc1N(C)CCN(C)C,> 1 µM,92.9% [middle of 4 runs],85.7% [middle of 4 runs],,,
CC(=O)OC12COC1CC(O)C1(C)C(=O)C(O)C3=C(C)C(OC(=O)C(O)C(NC(=O)OC(C)(C)C)c4ccccc4)CC(O)(C(OC(=O)c4ccccc4)C21)C3(C)C (stereo not given),< 0.0316 µM,20.4% [middle of 4 runs],20.9% [middle of 4 runs],19.3% [middle of 4 runs],19.9% [middle of 4 runs],"viability, T/C (compound 3.16 µM): 24.2% [middle of 4 runs]; viability, T/C (compound 10 µM): 27% [middle of 4 runs]"
CC(C)n1nc(-c2ccc3oc(N)nc3c2)c2c(N)ncnc21,,54.3% [middle of 4 runs],,,,"viability, T/C (compound 0.00316 µM): 84% [middle of 4 runs]; viability, T/C (compound 0.01 µM): 66% [middle of 4 runs]"
CCc1c2c(nc3ccc(O)cc13)-c1cc3c(c(=O)n1C2)COC(=O)[C@]3(O)CC,2.78 nM [middle of 4 runs],,,,,"viability, T/C (compound 0.000949 µM): 77.2% [middle of 4 runs]; viability, T/C (compound 0.00949 µM): 34.4% [middle of 4 runs]; viability, T/C (compound 0.03 µM): 19.3% [middle of 4 runs]; viability, T/C (compound 0.0949 µM): 12.7% [middle of 4 runs]; viability, T/C (compound 0.3 µM): 7.31% [middle of 4 runs]"
CCn1c(-c2cc(N3CCN(C)CC3)cnc2C(C)OC)c2c3cc(ccc31)-c1csc(n1)CC(NC(=O)C1CC1C)C(=O)N1CCCC(N1)C(=O)OCC(C)(C)C2 (stereo not given),,,,,,"viability, T/C (compound 0.000949 µM): 65% [middle of 8 runs]; viability, T/C (compound 0.003 µM): 55.2% [middle of 8 runs]; viability, T/C (compound 0.00949 µM): 43.7% [middle of 8 runs]; viability, T/C (compound 0.03 µM): 33.3% [middle of 7 runs]; viability, T/C (compound 0.0949 µM): 27.4% [middle of 7 runs]; viability, T/C (compound 0.3 µM): 24.9% [middle of 8 runs]; IC50 [2]: 4 nM [middle of 8 runs]"
CCn1c(-c2cccnc2C(C)OC)c2c3cc(ccc31)N1CCOC(CC(NC(=O)C(C(C)C)N(C)C(=O)C3(F)CCN(C(=O)C#CC(C)(C)N(C)C)CC3)C(=O)N3CCCC(N3)C(=O)OCC(C)(C)C2)C1 (stereo not given),,,,,,"viability, T/C (compound 0.000949 µM): 102% [middle of 8 runs]; viability, T/C (compound 0.003 µM): 99.7% [middle of 8 runs]; viability, T/C (compound 0.00949 µM): 104% [middle of 8 runs]; viability, T/C (compound 0.03 µM): 103% [middle of 8 runs]; viability, T/C (compound 0.0949 µM): 103% [middle of 8 runs]; viability, T/C (compound 0.3 µM): 90% [middle of 8 runs]; IC50 [2]: > 0.3 µM"
C[C@@H](NC(=O)c1ncnc(N)c1Cl)c1ncc(C(=O)Nc2cc(C(F)(F)F)c(Cl)cn2)s1,> 10 µM,116% [middle of 4 runs],,101% [middle of 4 runs],100% (2×) and 109% and 117%,"viability, T/C (compound 3.16 µM): 106% [middle of 4 runs]"
NC1c2ccccc2OC12CCN(c1cnc3c(N4CCCc5ncccc54)n[nH]c3n1)CC2 (stereo not given),> 10 µM,82.2% [middle of 4 runs],,72.5% [middle of 4 runs],66% [middle of 4 runs],
Nc1ccn(C2OC(CO)C(O)C2(F)F)c(=O)n1 (stereo not given),,70.9% [middle of 4 runs],62.3% [middle of 4 runs],,38.8% [middle of 4 runs],"viability, T/C (compound 0.00316 µM): 108% [middle of 4 runs]"
O=C(c1ccc(F)c(F)c1Nc1ccc(I)cc1F)N1CC(O)([C@@H]2CCCCN2)C1,,69.5% [middle of 4 runs],62.4% [middle of 4 runs],,33.5% [middle of 4 runs],

# The next lines start with results.
IC50 (curve of compound),SMILES,"viability, T/C (compound 0.0316 µM)","viability, T/C (compound 0.1 µM)","viability, T/C (compound 0.316 µM)","viability, T/C (compound 1 µM)",also measured
> 1 µM,C=CC(=O)N1CCN(c2nc(OCC3CCCN3C)nc3c(F)c(-c4nc(N)cc(C)c4C(F)(F)F)c(Cl)cc23)C(C)C1 (stereo not given),,104% [middle of 12 runs],,,IC50 [1]: > 1 µM
> 10 µM,CC(C)NCC(C(=O)N1CCN(c2ncnc3c2C(C)CC3O)CC1)c1ccc(Cl)cc1 (stereo not given),97.9% [middle of 4 runs],100% [middle of 4 runs],,88.7% [middle of 4 runs],
> 10 µM and 9.95 µM,CC(Nc1ccc2c(c1)OCCn1cc(N3C(=O)OCC3C(F)F)nc1-2)C(N)=O (stereo not given),94.9% [middle of 4 runs],,79.3% [middle of 4 runs],72% [middle of 4 runs],
3.92 nM [middle of 4 runs],CC1(C)CCC(Nc2ncc(C(F)(F)F)c(-c3c[nH]c4c(P(C)(C)=O)c(C#N)ccc34)n2)CN1 (stereo not given),,,,,"viability, T/C (compound 0.003 µM): 51.3% [middle of 4 runs]; viability, T/C (compound 0.00949 µM): 37.9% [middle of 4 runs]; viability, T/C (compound 0.03 µM): 31.7% [middle of 4 runs]; viability, T/C (compound 0.0949 µM): 36.9% [middle of 4 runs]; viability, T/C (compound 0.3 µM): 34.4% [middle of 4 runs]"
4.5 µM [middle of 4 runs],CC1(O)CCCC1n1c(=O)c(C(F)F)cc2cnc(NC3CCN(S(C)(=O)=O)CC3)nc21 (stereo not given),86.8% [middle of 4 runs],71.2% [middle of 4 runs],,71.2% [middle of 4 runs],"viability, T/C (compound 10 µM): 5.9% [middle of 4 runs]"
1.57 µM [middle of 4 runs],CCC(CC)c1cc(NC2CCC(N)C2)n2nccc2n1 (stereo not given),,,105% [middle of 4 runs],81.9% [middle of 4 runs],"viability, T/C (compound 3.16 µM): 1.5% [middle of 4 runs]; viability, T/C (compound 10 µM): 1.88% [middle of 4 runs]"
> 1 µM,CCN1CCN(Cc2ccc(Nc3ncc(F)c(-c4cc(F)c5nc(C)n(C(C)C)c5c4)n3)nc2)CC1,81.5% [middle of 4 runs],77.8% [middle of 4 runs],,,"viability, T/C (compound 0.00316 µM): 96.8% [middle of 4 runs]"
> 10 µM,Cc1nc(N2CCC3(CC2)COC(C)C3N)c(CO)nc1Sc1ccnc(N)c1Cl (stereo not given),106% [middle of 4 runs],,85.7% [middle of 4 runs],81.1% [middle of 4 runs],
